Measured values published in patent US8987314B2, “Amide, urea or sulfone amide linked benzothiazole inhibitors of endothelial lipase” (Bristol-Myers Squibb Company, priority 2012, dated 2015).
pIC50: −log10 of the molar value. Read-outs that look alike come from different tables or passages of the source.

Key:
[1] = biological target: Endothelial lipase (EL) (Homo sapiens (Human), UniProt Q9Y5X9); assay: EL assay: endothelial lipase activity with fluorescent substrate A10070 in DMPG vesicles; assay type: biochemical
Sequence of Endothelial lipase (EL) (Q9Y5X9 21-500): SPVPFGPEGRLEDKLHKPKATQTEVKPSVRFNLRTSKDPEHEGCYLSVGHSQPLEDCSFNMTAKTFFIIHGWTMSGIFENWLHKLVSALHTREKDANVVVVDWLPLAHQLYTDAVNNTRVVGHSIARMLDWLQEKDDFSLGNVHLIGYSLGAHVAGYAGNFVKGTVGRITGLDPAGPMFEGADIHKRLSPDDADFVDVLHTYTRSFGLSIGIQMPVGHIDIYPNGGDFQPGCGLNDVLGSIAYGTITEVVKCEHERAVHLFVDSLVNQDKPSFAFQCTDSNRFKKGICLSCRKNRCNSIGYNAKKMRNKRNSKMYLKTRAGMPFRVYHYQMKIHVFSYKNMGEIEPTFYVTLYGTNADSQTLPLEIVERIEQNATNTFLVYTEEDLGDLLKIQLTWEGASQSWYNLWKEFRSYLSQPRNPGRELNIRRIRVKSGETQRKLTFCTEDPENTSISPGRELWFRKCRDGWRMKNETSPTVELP
Outline: (§1)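 Vesicles prepared: A10070 dried with DMPG, resuspended in HEPES pH 8.0/NaCl/EDTA, sonicated on ice. Enzyme incubated with compound 30 min at 37° C. Reaction started with 1:10 diluted vesicles. Fluorescence (490/530 nm) followed 60 min; slope from 300–900 secs gives rate.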

[2] = biological target: hepatic lipase (HL) (Homo sapiens (Human), UniProt P11150); assay: HL assay: hepatic lipase activity with fluorescent substrate A10070 in DMPG vesicles; assay type: biochemical
Sequence of hepatic lipase (HL) (P11150 23-499, species assumed): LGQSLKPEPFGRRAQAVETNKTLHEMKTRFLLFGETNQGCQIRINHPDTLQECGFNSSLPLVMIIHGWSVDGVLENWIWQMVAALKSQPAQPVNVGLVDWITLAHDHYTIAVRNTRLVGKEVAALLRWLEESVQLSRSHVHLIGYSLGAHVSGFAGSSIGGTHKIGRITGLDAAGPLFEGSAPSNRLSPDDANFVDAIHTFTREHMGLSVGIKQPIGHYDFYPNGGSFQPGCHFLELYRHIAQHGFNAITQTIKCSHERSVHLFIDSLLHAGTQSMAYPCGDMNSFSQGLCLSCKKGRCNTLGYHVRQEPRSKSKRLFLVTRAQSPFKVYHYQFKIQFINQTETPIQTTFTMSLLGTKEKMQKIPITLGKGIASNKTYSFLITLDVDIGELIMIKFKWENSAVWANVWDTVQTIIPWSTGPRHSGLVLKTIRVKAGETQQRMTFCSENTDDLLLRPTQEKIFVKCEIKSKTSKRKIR
Outline: as §1

[3] = EL from conditioned media of HT-1080 cells, 30 min incubation with compound at 37° C., A10070/DMPG vesicles
[4] = HL partially purified from conditioned media of COS cells, 30 min incubation with compound at 37° C., A10070/DMPG vesicles

Row | SMILES | pIC50 [1, 3] | pIC50 [2, 4] | pIC50 [1] | pIC50 [2]
1 | CS(=O)(=O)C(C(=O)NCCS(N)(=O)=O)c1nc2ccc(-c3cnn(C4CCNCC4)c3)cc2s1 (centres unmarked) [Example B98, 2-(Methylsulfonyl)-2-(6-(1-(4-piperidinyl)-1H-pyrazol-4-yl)-1,3-benzothiazol-2-yl)-N-(2-sulfamoylethyl)acetamide] | > 8.00 | 6.33 |  | 
2 | COCCNC(=O)c1ccc(-c2ccc3nc(C(C(=O)NCCS(N)(=O)=O)S(=O)(=O)Cc4ccccc4)sc3c2)cc1 (centres unmarked) [Example B99, 4-(2-(1-(Benzylsulfonyl)-2-oxo-2-((2-sulfamoylethyl)amino)ethyl)-1,3-benzothiazol-6-yl)-N-(2-methoxyethyl)benzamide] | > 8.00 | 7.26 |  | 
3 | COCCS(=O)(=O)C(C(=O)NCCS(N)(=O)=O)c1nc2ccc(-c3ccc(C(=O)N4CCOCC4)cc3)cc2s1 (centres unmarked) [Example B100, 2-((2-methoxyethyl)sulfonyl)-2-(6-(4-(4-morpholinyl-carbonyl)phenyl)-1,3-benzothiazol-2-yl)-N-(2-sulfamoylethyl)acetamide] |  |  | > 8.00 | 5.91
4 | CS(=O)(=O)C(C(=O)NCCS(N)(=O)=O)c1nc2ccc(-c3ccc(C(=O)N4CCOCC4)cc3)cc2s1 (centres unmarked) [Example B101, 2-(methylsulfonyl)-2-(6-(4-(4-morpholinylcarbonyl)phen-yl)-1,3-benzothiazol-2-yl)-N-(2-sulfamoylethyl)a-cetamide] |  |  | > 8.00 | 7.20
5 | NS(=O)(=O)CCNC(=O)C(c1nc2ccc(-c3ccc(C(=O)N4CCOCC4)cc3)cc2s1)S(=O)(=O)Cc1ccccc1 (centres unmarked) [Example B102, 2-(benzylsulfonyl)-2-(6-(4-(4-morpholinylcarbonyl)phen-yl)-1,3-benzothiazol-2-yl)-N-(2-sulfamoylethyl)a-cetamide] |  |  | 7.74 | 5.28
6 | COCCS(=O)(=O)C(C(=O)NCCS(N)(=O)=O)c1nc2ccc(-c3ccccc3)cc2s1 (centres unmarked) [Example B103, 2-((2-methoxyethyl)sul-fonyl)-2-(6-phenyl-1,3-benzothiazol-2-yl)-N-(2-sulfamoylethyl)acetemide] |  |  | > 8.00 | > 8.00
7 | NS(=O)(=O)CCNC(=O)C(c1nc2ccc(-c3ccccc3)cc2s1)S(=O)(=O)Cc1ccccc1 (centres unmarked) [Example B104, 2-(benzylsulfonyl)-2-(6-phenyl-1,3-benzothiazol-2-yl)-N-(2-sulfamoylethyl)a-cetamide] |  |  | > 8.00 | > 8.00
8 | CCS(=O)(=O)C(C(=O)NCCS(N)(=O)=O)c1nc2ccc(-c3ccccc3)cc2s1 (centres unmarked) [Example B105, 2-(ethylsulfonyl)-2-(6-phenyl-1,3-benzothiazol-2-yl)-N-(2-sulfamoylethyl)a-cetamide] |  |  | > 8.00 | > 8.00
9 | CC(C)CS(=O)(=O)C(C(=O)NCCS(N)(=O)=O)c1nc2ccc(-c3ccccc3)cc2s1 (centres unmarked) [Example B106, 2-(isobutylsulfonyl)-2-(6-phenyl-1,3-benzothiazol-2-yl)-N-(2-sulfamoylethyl)a-cetamide] |  |  | > 8.00 | > 8.00
10 | CCCS(=O)(=O)C(C(=O)NCCS(N)(=O)=O)c1nc2ccc(-c3ccccc3)cc2s1 (centres unmarked) [Example B107, 2-(6-phenyl-1,3-benzothiazol-2-yl)-2-(propylsulfonyl)-N-(2-sulfamoylethyl)acetamide] |  |  | > 8.00 | > 8.00
11 | NS(=O)(=O)CCNC(=O)C(c1nc2ccc(-c3ccc(C(=O)N4CCOCC4)cc3)cc2s1)S(=O)(=O)CCC(F)(F)F (centres unmarked) [Example B108, 2-(6-(4-(4-morpholinyl-carbonyl)phenyl)-1,3-benzothiazol-2-yl)-N-(2-sulfamoylethyl)-2-((3,3,3-trifluoropropyl)sul-fonyl)acetamide] |  |  | > 8.00 | 7.64
12 | CC(C)CS(=O)(=O)C(C(=O)NCCS(N)(=O)=O)c1nc2ccc(-c3ccc(C(=O)N4CCOCC4)cc3)cc2s1 (centres unmarked) [Example B109, 2-(isobutylsulfonyl)-2-(6-(4-(4-morpholinyl-carbonyl)phenyl)-1,3-benzothiazol-2-yl)-N-(2-sulfamoylethyl)acetamide] |  |  | > 8.00 | 6.72
13 | COCCNC(=O)c1ccc(-c2ccc3nc(C(C(=O)NCCS(N)(=O)=O)S(=O)(=O)CCC(F)(F)F)sc3c2)cc1 (centres unmarked) [Example B110, N-(2-methoxyethyl)-4-(2-(2-oxo-2-((2-sulfamoyl-ethyl)amino)-1-((3,3,3-trifluoropropyl)sulfonyl)eth-yl)-1,3-benzothiazol-6-yl)benzamide] |  |  | > 8.00 | 6.74
14 | NS(=O)(=O)CCNC(=O)C(c1nc2ccc(-c3ccc(C(=O)N4CCOCC4)cc3)cc2s1)S(=O)(=O)CC1CC1 (centres unmarked) [Example B111, 2-((cyclopropylmethyl)sul-fonyl)-2-(6-(4-(4-morpholinylcarbonyl)phen-yl)-1,3-benzothiazol-2-yl)-N-(2-sulfamoylethyl)a-cetamide] |  |  | > 8.00 | 5.84
15 | COCCNC(=O)c1ccc(-c2ccc3nc(C(C(=O)NCCS(N)(=O)=O)S(=O)(=O)Cc4ccc(F)cc4)sc3c2)cc1 (centres unmarked) [Example B112, 4-(2-(1-((4-fluorobenzyl)sul-fonyl)-2-oxo-2-((2-sulfamoylethyl)amino)eth-yl)-1,3-benzothiazol-6-yl)-N-(2-methoxyethyl)ben-zamide] |  |  | > 8.00 | 5.08
16 | COCCNC(=O)c1ccc(-c2ccc3nc(C(C(=O)NCCS(N)(=O)=O)S(=O)(=O)Cc4ccc(OC(F)(F)F)cc4)sc3c2)cc1 (centres unmarked) [Example B113, N-(2-methoxyethyl)-4-(2-(2-oxo-2-((2-sulfamoyl-ethyl)amino)-1-((4-(trifluoromethoxy)ben-zyl)sulfonyl)ethyl)-1,3-benzothiazol-6-yl)ben-zamide] |  |  | 9.15 | 7.32
17 | COCCNC(=O)c1ccc(-c2ccc3nc(C(C(=O)NCCS(N)(=O)=O)S(=O)(=O)Cc4cccc(C#N)c4)sc3c2)cc1 (centres unmarked) [Example B115] |  |  | 8.92 | 6.97
18 | COCCNC(=O)c1ccc(-c2ccc3nc(C(C(=O)NCCS(N)(=O)=O)S(=O)(=O)Cc4ccc(C(F)(F)F)cc4)sc3c2)cc1 (centres unmarked) [Example B116, N-(2-methoxyethyl)-4-(2-(2-oxo-2-((2-sulfamoyl-ethyl)amino)-1-((4-(trifluoromethyl)benzyl)sul-fonyl)ethyl)-1,3-benzothiazol-6-yl)ben-zamide] |  |  | > 8.00 | 6.74
19 | COCCNC(=O)c1ccc(-c2ccc3nc(C(C(=O)NCCS(N)(=O)=O)S(=O)(=O)Cc4cccc(F)c4)sc3c2)cc1 (centres unmarked) [Example B117, 4-(2-(1-((3-fluorobenzyl)sulfonyl)-2-oxo-2-((2-sulfamoylethyl)a-mino)ethyl)-1,3-benzothiazol-6-yl)-N-(2-methoxyethyl)benzamide] |  |  | > 8.00 | 6.75
20 | NS(=O)(=O)CCNC(=O)C(c1nc2ccc(-c3ccccc3)cc2s1)S(=O)(=O)CC1CC1 (centres unmarked) [Example B118, 2-((cyclopropylmethyl)sul-fonyl)-2-(6-phenyl-1,3-benzothiazol-2-yl)-N-(2-sulfamoylethyl)acetamide] |  |  | > 8.00 | 8.00
21 | NS(=O)(=O)CCNC(=O)C(c1nc2ccc(-c3ccccc3)cc2s1)S(=O)(=O)Cc1ccc(F)cc1 (centres unmarked) [Example B119, 2-((4-fluorobenzyl)sul-fonyl)-2-(6-phenyl-1,3-benzothiazol-2-yl)-N-(2-sulfamoylethyl)acetamide] |  |  | > 8.00 | 7.96
22 | N#Cc1cccc(CS(=O)(=O)C(C(=O)NCCS(N)(=O)=O)c2nc3ccc(-c4ccccc4)cc3s2)c1 (centres unmarked) [Example B120, 2-((3-cyanobenzyl)sul-fonyl)-2-(6-phenyl-1,3-benzothiazol-2-yl)-N-(2-sulfamoylethyl)acetamide] |  |  | > 8.00 | 7.82
23 | COc1ccc(CN(Cc2ccc(OC)cc2)S(=O)(=O)CCNC(=O)C(c2nc3ccc(-c4ccccc4)cc3s2)S(C)(=O)=O)cc1 (centres unmarked) [Example B121, N-(2-(bis(4-methoxybenzyl)sulfamoyl)eth-yl)-2-(methylsulfonyl)-2-(6-phenyl-1,3-benzothiazol-2-yl)a-cetamide] |  |  | 7.10 | 7.96
24 | NS(=O)(=O)CCNC(=O)C(c1nc2ccc(-c3cnn(CCN4CCOCC4)c3)cc2s1)S(=O)(=O)Cc1ccccc1 (centres unmarked) [Example B122, 2-(benzylsulfonyl)-2-(6-{1-[2-(4-morpholinyl)ethyl]-1H-pyrazol-4-yl}-1,3-benzothiazol-2-yl)-N-(2-sulfamoylethyl)acetamide] |  |  | 7.36 | 6.20
25 | CC(C)CS(=O)(=O)C(C(=O)NCCS(N)(=O)=O)c1nc2ccc(-c3cnn(CCN4CCOCC4)c3)cc2s1 (centres unmarked) [Example B123, 2-(isobutylsulfonyl)-2-(6-{1-[2-(4-morpholinyl)eth-yl]-1H-pyrazol-4-yl}-1,3-benzothiazol-2-yl)-N-(2-sulfamoylethyl)a-cetamide] |  |  | 7.74 | 6.40
26 | COCCS(=O)(=O)C(C(=O)NCCS(N)(=O)=O)c1nc2ccc(Br)cc2s1 (centres unmarked) [Example B124, 2-(6-bromo-1,3-benzothiazol-2-yl)-2-((2-methoxyethyl)sulfonyl)-N-(2-sulfamoylethyl)a-cetamide] |  |  | 7.59 | 6.08
27 | NS(=O)(=O)CCNC(=O)C(c1nc2ccc(Br)cc2s1)S(=O)(=O)CCC(F)(F)F (centres unmarked) [Example B125, 2-(6-bromo-1,3-benzothiazol-2-yl)-N-(2-sulfamoylethyl)-2-((3,3,3-trifluoropropyl)sulfonyl)a-cetamide] |  |  | 7.00 | 6.52
28 | NS(=O)(=O)CCNC(=O)C(c1nc2ccc(-c3ccnc(F)c3)cc2s1)S(=O)(=O)Cc1ccccc1 (centres unmarked) [Example B126, 2-(benzylsulfonyl)-2-(6-(2-fluoro-4-pyridinyl)-1,3-benzothiazol-2-yl)-N-(2-sulfamoylethyl)acetamide] |  |  | > 8.00 | 7.29
